Measurements: patent US7022716B2, “Cyclic amine phenyl beta-3 adrenergic receptor agonists” (Wyeth, priority 2000, dated 2006)

Molecular target: T1, human β3 adrenergic receptor (Homo sapiens, UniProt P13945)
T1 construct: Full length β3 AR clones (402 amino acids) containing the last 6 amino acids of hβ3-AR are prepared; expressed in transfected cells; host or cells: CHO (Chinese hamster ovary) cells
Assay: cAMP (SPA) response in CHO cells transfected with human β3 adrenergic receptor
Format: cell-based
Parameters: key: fraction of maximal isoproterenol (10^-5 M) response
Conditions: maximal response relative to maximal response of isoproterenol at 10^-5 M
How it was run: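 Reactions were stopped with 0.2N HCl and neutralised, and cAMP was measured by SPA. Activity is expressed as percent of the maximal 10^−5 M isoproterenol response.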

T1 sequence (P13945 whole entry): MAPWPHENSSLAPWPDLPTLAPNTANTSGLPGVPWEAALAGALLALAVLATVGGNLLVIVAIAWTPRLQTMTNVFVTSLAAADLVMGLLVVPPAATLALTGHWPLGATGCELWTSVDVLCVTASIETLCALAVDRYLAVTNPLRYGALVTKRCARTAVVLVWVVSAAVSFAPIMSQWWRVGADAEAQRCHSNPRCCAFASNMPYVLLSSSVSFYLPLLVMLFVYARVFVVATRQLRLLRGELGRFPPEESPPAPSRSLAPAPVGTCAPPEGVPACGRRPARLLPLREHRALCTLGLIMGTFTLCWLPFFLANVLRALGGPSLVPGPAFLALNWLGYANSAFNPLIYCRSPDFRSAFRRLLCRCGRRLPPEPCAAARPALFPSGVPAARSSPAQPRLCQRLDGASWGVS

Row | Structure (SMILES) | IA(β3)
1 | CC(=O)Nc1ccc(S(=O)(=O)Nc2ccc(N3CCC(NC[C@H](O)COc4ccccc4)CC3)cc2)cc1 [Example 272, N-(4-{[4-(4-{[(2S)-2-Hydroxy-3-phenoxypropyl]amino}-1-piperidinyl)anilino]-sulfonyl}phenyl)acetamide] | 0.57
2 | CCCCCCNC(=O)Nc1ccc(S(=O)(=O)Nc2ccc(N3CCC(NC[C@H](O)c4ccc(O)c(NS(C)(=O)=O)c4)CC3)cc2)cc1 [Example 276, 4-{[(Hexylamino)carbonyl]amino}-N-(4-{4-[((2R)-2-hydroxy-2-{4-hydroxy-3-[(methylsulfonyl)amino]phenyl}ethyl)amino]-1-piperidinyl}phenyl)benzenesulfonamide] | 1.1
3 | Cc1c(S(=O)(=O)Nc2ccc(N3CCC(NC[C@H](O)COc4cccc5[nH]c(=O)[nH]c45)CC3)cc2)sc2ccc(Cl)cc12 [Example 283, 5-Chloro-N-{4-[4-({(2S)-2-hydroxy-3-[(2-oxo-2,3-dihydro-1H-benzimidazol-4-yl)oxy]propyl}amino)-1-piperidinyl]phenyl}-3-methyl-1-benzothiophene-2-sulfonamide] | 0.81
4 | CC(=O)Nc1ccc(S(=O)(=O)Nc2ccc(N3CCC(NCC(O)c4ccc(O)cc4)CC3)cc2)cc1 (stereo not shown) [Example 259, N-(4-{[4-(4-{[2-Hydroxy-2-(4-hydroxyphenyl)ethyl]amino}-1-piperidinyl)-anilino]sulfonyl}phenyl)acetamide] | 0.97
5 | CC(=O)Nc1ccc(S(=O)(=O)Nc2ccc(N3CCC(NCC(O)c4cc(C(N)=O)c5[nH]ccc5c4)CC3)cc2)cc1 (stereo not shown) [Example 273, 5-[2-({1-[4-({[4-(Acetylamino)phenyl]sulfonyl}amino)phenyl]-4-piperidinyl}amino)-1-hydroxyethyl]-1H-indole-7-carboxamide] | 1.05
6 | COc1ccc(S(=O)(=O)Nc2ccc(N3CCC(NCC(O)c4ccccc4)CC3)cc2)cc1 (stereo not shown) [Example 255, N-{4-[4-(2-Hydroxy-2-phenyl-ethylamino)-piperidin-1-yl]-phenyl}-4-methoxy-benzenesulfonamide] | 0.72
7 | CS(=O)(=O)Nc1cc(C(O)CNC2CCN(c3ccc(NS(=O)(=O)c4ccc(-c5ccccn5)s4)cc3)CC2)ccc1O (stereo not shown) [Example 294, N-(4-{4-[(2-Hydroxy-2-{4-hydroxy-3-[(methylsulfonyl)amino]phenyl}ethyl)amino]-1-piperidinyl}phenyl)-5-(2-pyridinyl)-2-thiophenesulfonamide] | 1.07
8 | O=c1[nH]c2cccc(OC[C@@H](O)CNC3CCN(c4ccc(NS(=O)(=O)c5ccc(S(=O)(=O)c6ccc(C(F)(F)F)cn6)s5)cc4)CC3)c2[nH]1 [Example 299] | 1.1
9 | O=C1NC(=S)SC1=Cc1ccc(N2CCC(NC[C@H](O)COc3ccc(O)cc3)CC2)cc1 [Example 82, 5-(4-{4-[(2S)-2-Hydroxy-3-(4-hydroxy)-propylamino]-piperidin-1-yl}-benzylidene)-2-thioxo-thiazolidin-4-one] | 1.07

Other lines, results leading:

Row | IA(β3) | Structure (SMILES)
10 | 0.91 | O=C(NCc1ccc(S(=O)(=O)Nc2ccc(N3CCC(NC[C@H](O)COc4cccc5[nH]c(=O)[nH]c45)CC3)cc2)s1)c1ccccc1 [Example 347, N-{[5-({4-[4-({(2S)-2-Hydroxy-3-[(2-oxo-2,3-dihydro-1H-benzimidazol-4-yl)oxy]propyl}amino)-1-piperidinyl]anilino}sulfonyl)-2-thienyl]methyl}benzamide]
11 | 0.87 | COC(=O)c1sccc1S(=O)(=O)Nc1ccc(N2CCC(NC[C@H](O)c3ccc(O)c(NS(C)(=O)=O)c3)CC2)cc1 [Example 320, Methyl3-[(4-{4-[((2R)-2-hydroxy-2-{4-hydroxy-3-[(methylsulfonyl)amino]-phenyl}ethyl)amino]-1-piperidinyl}anilino)sulfonyl]-2-thiophenecarboxylate]
12 | 1 | CCCCCCNC(=O)Nc1ccc(S(=O)(=O)Nc2ccc(N3CCC(NC[C@H](O)COc4ccc(O)c5c4CCC(=O)N5)CC3)cc2)cc1 [Example 305, 4-{[(Hexylamino)carbonyl]amino}-N-{4-[4-({(2S)-2-hydroxy-3-[(8-hydroxy-2-oxo-1,2,3,4-tetrahydro-5-quinolinyl)oxy]propyl}amino)-1-piperidinyl]phenyl}benzenesulfonamide]
13 | 1.2 | CCCCS(=O)(=O)Nc1ccc(N2CCC(NC[C@H](O)COc3ccc(O)c(NS(=O)(=O)c4ccccc4)c3)CC2)cc1 [Example 315, N-[5-({(2S)-3-[(1-{4-[(Butylsulfonyl)amino]phenyl}-4-piperidinyl)amino]-2-hydroxypropyl}oxy)-2-hydroxyphenyl]benzenesulfonamide]
14 | 1 | COc1ccc(Br)cc1S(=O)(=O)Nc1ccc(N2CCC(NC[C@H](O)COc3cccc4[nH]c(=O)[nH]c34)CC2)cc1 [Example 338, 5-Bromo-N-{4-[4-(f{(2S)-2-hydroxy-3-[(2-oxo-2,3-dihydro-1H-benzimidazol-4-yl)oxy]propyl}amino)-1-piperidinyl]phenyl}-2-methoxybenzenesulfonamide]
15 | 0.91 | COc1ccc(OC)c(S(=O)(=O)Nc2ccc(N3CCC(NC[C@H](O)COc4cccc5[nH]c(=O)[nH]c45)CC3)cc2)c1 [Example 334, N-{4-[4-({(2S)-2-Hydroxy-3-[(2-oxo-2,3-dihydro-1H-benzimidazol-4-yl)oxy]propyl}-amino)-1-piperidinyl]phenyl}-2,5-dimethoxybenzenesulfonamide]
16 | 1.1 | CCOC(=O)Cc1ccc(S(=O)(=O)Nc2ccc(N3CCC(NC[C@H](O)COc4ccc(O)c(NS(C)(=O)=O)c4)CC3)cc2)cc1 [Example 312, Ethyl{4-[(4-}4-[((2S)-2hydroxy-3-{4-hydroxy-3-[(methylsulfonyl)amino]-phenoxy{propyl)amino]-1-piperidinyl}anilino)sulfonyl]phenyl}acetate]
17 | 0.97 | CS(=O)(=O)Nc1cc([C@@H](O)CNC2CCN(c3ccc(NS(=O)(=O)c4ccc(C(=O)O)cc4)cc3)CC2)ccc1O [Example 317, 4-[(4-{4-[((2R)-2-Hydroxy-2-{4-hydroxy-3-[(methylsulfonyl)amino]phenyl}ethyl)amino]-1-piperidinyl}anilino)sulfonyl]benzoic acid]
18 | 0.89 | O=c1[nH]c2cccc(OC[C@@H](O)CNC3CCN(c4ccc(NS(=O)(=O)c5ccc(C(F)(F)F)cc5)cc4)CC3)c2[nH]1 [Example 328]
19 | 0.87 | O=S(=O)(Nc1ccc(N2CCC(NC[C@@H](O)c3cccc(O)c3)CC2)cc1)c1cccs1 [Example 357, N-[4-(4-{[(2S)-2-Hydroxy-2-(3-hydroxyphenyl)ethyl]amino}-1-piperidinyl)phenyl]-2-thiophenesulfonamide]
20 | 0.95 | O=C1NC(=O)C(Cc2ccc(S(=O)(=O)Nc3ccc(N4CCC(NC[C@H](O)COc5cccc6[nH]c(=O)[nH]c56)CC4)cc3)cc2)S1 (stereo partly drawn) [Example 301, 4-[(2,4-Dioxo-1,3-thiazolidin-5-yl)methyl]-N-{4-[4-({(2S)-2-hydroxy-3-[(2-oxo-2,3-dihydro-1H-benzimidazol-4-yl)oxy]propyl}amino)-1-piperidinyl]phenyl}-benzenesulfonamide]

System: not given
Assay: not given
Conditions: not given

Row | Structure (SMILES) | melting point
21 | CS(=O)(=O)Nc1cc(C(O)CNC2CCN(c3ccc(CC4SC(=O)NC4=O)cc3)CC2)ccc1O (stereo not shown) [Example 78] | > 150 °C (dec.)
22 | CS(=O)(=O)Nc1cc(C(O)CNC2CCN(c3ccc(C=C4SC(=O)NC4=O)cc3)CC2)ccc1O (stereo not shown) | > 200 °C (dec.)
